The format of this data set is physicochemical. The procedure: microscopy (UltraVIEW VoX).
H460 cells (1 x 10^5 cells per well) were seeded in a confocal microscopy dish (MatTek). After culture for 24 h, the cells were treated with P7 (XIAP inhibitor) (50 μM) or […] (caspase inhibitor) (10 μM) for 3 h and followed by PBS washing. And then the molecule 1 (50 μM) and 2 (50 μM) were individually added for 1 h and followed by PBS washing and fresh medium replacement.
After further 6 h of incubation, the cells were washed twice by PBS and stained with bisBenzimide H 33342 trihydrochloride (Hoechst 33342) (1 mg ml-1; Life Technologies) at 37 °C for 10 min. […]
[Cy]0 is the initial concentration of the molecule 1 or 4, [Cy]t is the concentration of the molecule 1 or […] after the irradiation of t min. Based on Beer rule, it has the linear relation between the concentration of the molecule 1 or 4 and the absorbance in maximal wavelength for the low concentration cyanine dye. […]
A0 is the absorbance in maximal wavelength before the irradiation, and At is the absorbance in maximal wavelength after the irradiation. […]
The pathway of molecule 1 entering cells. […] Subsequently, H460 cells were treated with molecule 1 (50 uM), after 2 h of incubation at 37 ℃ the medium was removed and the cells were washed three times with PBS and analysed by confocal laser scanning […]

Where a SMILES comes first, the peptide text is derived from it. The star is where a group is joined. X1 = CC1(C)C(=CC=C2CCCC(C=CC3=[N+](CCCCCC(=O)O)c4ccccc4C3(C)C)=C2*)N(CCCCCC(=O)O)c2ccccc21

`CC[C@H](C)[C@H](NC(=O)[C@@H]1CCCN1C(=O)[C@@H](NC(=O)[C@H](C)N)C(C)C)C(=O)N[C@@H](C)C(=O)N[C@@H](CCC(N)=O)C(=O)N[C@@H](CCCCN)C(=O)N[C@@H](CC(=O)O)C(=O)N[C@@H](CCC(=O)O)C(=O)N[C@H](C(=O)N[C@@H](CC(=O)O)C(=O)N[C@@H](CCCCN)C(=O)N[C@@H](CC(C)C)C(=O)N[C@H](C(=O)N[C@@H](Cc1ccccc1)C(=O)N[C@@H](Cc1ccccc1)C(=O)N[C@@H](C)C(=O)N[C@@H](CCC(=O)O)C(=O)N[C@@H](CSC1=C(C=CC2=[N+](CCCCCC(=O)O)c3ccccc3C2(C)C)CCCC1=CC=C1N(CCCCCC(=O)O)c2ccccc2C1(C)C)C(=O)NCC(=O)O)C(C)C)C(C)C` [molecule 1] (H-AVPIAQKDEVDKLVFFAEC(X1)G-OH): the “photobleaching after irradiation for 6 h” value (irradiation 6 h, pure water, Suppl. Fig. 16: xenon flash lamp, 5 μM in PBS buffer 10 mM pH 7.4, r.t., absorbance at 780 nm) is reported as 42%. Besides, where the note is “rate constants k from ln(A0/At) = kt, tested in parallel”, the “photodegradation rate of molecule 1 relative to that of 4” value stood at 7.5 fold.

Values taken from PMC6813295, “A tumour-selective cascade activatable self-detained system for drug delivery and cancer imaging” (Nature Communications, 2019).
